Patent US20250295646A1, “METHODS OF USE OF T-TYPE CALCIUM CHANNEL MODULATORS” (Praxis Precision Medicines, Inc., priority 2022, published 2025)

Test system: adult patients with essential tremor
Assay: Example 16: accelerometer-based (Kinesia ONE) TETRAS upper limb score
Format: in vivo, human
Details: Part B, baseline upper limb score ≥10; for Accelerometer-Based Upper Limb Score, Change from Baseline, Mean (SD) / Accelerometer-Based Upper Limb Score, Change from Baseline, Median / Accelerometer-Based Upper Limb Score, Mean (SD) / Accelerometer-Based Upper Limb Score, Median / Accelerometer-Based Upper Limb Score, Percentage Change from Baseline in Tremor Amplitude, Mean (SD) / Accelerometer-Based Upper Limb Score, Percentage Change from Baseline in Tremor Amplitude, Median / Accelerometer-Based Upper Limb Score, Change from Randomization, LS Mean (SE) / Accelerometer-Based Upper Limb Score, Change from Randomization, Mean (SD) / Accelerometer-Based Upper Limb Score, Change from Randomization, Median / Accelerometer-Based Upper Limb Score, LS Mean Percentage Change in Tremor Amplitude from Randomization / Accelerometer-Based Upper Limb Score, Percentage Change from Randomization in Tremor Amplitude, Mean (SD) / Accelerometer-Based Upper Limb Score, Percentage Change from Randomization in Tremor Amplitude, Median: Formula (I) arm (N = 4)
From the text: Accelerometer (Kinesia ONE) TETRAS assessments were generally consistent with those conducted at the clinic. Accelerometer upper limb score values are summarized for Part A, the open-label titration phase of Part B, and the randomized withdrawal phase of Part B in Table 37, Table 38, and Table 39, respectively

[1] = Day 42 Post - dose (Randomization Baseline)

## CC(C)(C)NC(=O)CN1CCC(CNC(=O)c2cc(F)cc(Cl)c2)CC1 [compound of formula (I), N-((1-(2-(tert-butylamino)-2-oxoethyl)piperidin-4-yl)methyl)-3-chloro-5-fluorobenzamide]
Day 1, Post - dose
  Accelerometer-Based Upper Limb Score, Change from Baseline, Mean (SD): −0.45 (1.476)
  Accelerometer-Based Upper Limb Score, Change from Baseline, Median: −0.83
  Accelerometer-Based Upper Limb Score, Mean (SD): 10.46 (2.611)
  Accelerometer-Based Upper Limb Score, Median: 11.50
  Accelerometer-Based Upper Limb Score, Percentage Change from Baseline in Tremor Amplitude, Mean (SD): −7.70 (24.390) %
  Accelerometer-Based Upper Limb Score, Percentage Change from Baseline in Tremor Amplitude, Median: −14.36%
Day 7
  Accelerometer-Based Upper Limb Score, Change from Baseline, Mean (SD): −1.48 (0.814)
  Accelerometer-Based Upper Limb Score, Change from Baseline, Median: −1.85
  Accelerometer-Based Upper Limb Score, Mean (SD): 9.67 (3.386)
  Accelerometer-Based Upper Limb Score, Median: 11.10
  Accelerometer-Based Upper Limb Score, Percentage Change from Baseline in Tremor Amplitude, Mean (SD): −24.14 (12.303) %
  Accelerometer-Based Upper Limb Score, Percentage Change from Baseline in Tremor Amplitude, Median: −29.88%
Day 21
  Accelerometer-Based Upper Limb Score, Change from Baseline, Mean (SD): −0.56 (1.181)
  Accelerometer-Based Upper Limb Score, Change from Baseline, Median: −0.55
  Accelerometer-Based Upper Limb Score, Mean (SD): 10.35 (3.035)
  Accelerometer-Based Upper Limb Score, Median: 11.48
  Accelerometer-Based Upper Limb Score, Percentage Change from Baseline in Tremor Amplitude, Mean (SD): −9.09 (19.622) %
  Accelerometer-Based Upper Limb Score, Percentage Change from Baseline in Tremor Amplitude, Median: −9.68%
Day 42, Post - dose
  Accelerometer-Based Upper Limb Score, Change from Baseline, Mean (SD): −0.46 (1.605)
  Accelerometer-Based Upper Limb Score, Change from Baseline, Median: −0.23
  Accelerometer-Based Upper Limb Score, Percentage Change from Baseline in Tremor Amplitude, Mean (SD): −6.66 (25.539) %
  Accelerometer-Based Upper Limb Score, Percentage Change from Baseline in Tremor Amplitude, Median: −3.87%
Day 42, Pre - dose
  Accelerometer-Based Upper Limb Score, Change from Baseline, Mean (SD): 0.02 (1.702)
  Accelerometer-Based Upper Limb Score, Change from Baseline, Median: 0.05
  Accelerometer-Based Upper Limb Score, Mean (SD): 10.94 (0.884)
  Accelerometer-Based Upper Limb Score, Median: 11.23
  Accelerometer-Based Upper Limb Score, Percentage Change from Baseline in Tremor Amplitude, Mean (SD): 0.39 (28.120) %
  Accelerometer-Based Upper Limb Score, Percentage Change from Baseline in Tremor Amplitude, Median: 0.78%
[1]
  Accelerometer-Based Upper Limb Score, Mean (SD): 10.45 (1.616)
  Accelerometer-Based Upper Limb Score, Median: 10.88
Day 56
  Accelerometer-Based Upper Limb Score, Change from Baseline, Mean (SD): −0.35 (3.213)
  Accelerometer-Based Upper Limb Score, Change from Baseline, Median: 0.62
  Accelerometer-Based Upper Limb Score, Change from Randomization, LS Mean (SE): 0.071 (1.3594)
  Accelerometer-Based Upper Limb Score, Change from Randomization, Mean (SD): 0.11 (1.662)
  Accelerometer-Based Upper Limb Score, Change from Randomization, Median: 0.70
  Accelerometer-Based Upper Limb Score, LS Mean Percentage Change in Tremor Amplitude from Randomization: 1.4%
  Accelerometer-Based Upper Limb Score, Mean (SD): 10.56 (2.093)
  Accelerometer-Based Upper Limb Score, Median: 10.88
  Accelerometer-Based Upper Limb Score, Percentage Change from Baseline in Tremor Amplitude, Mean (SD): −1.64 (43.539) %
  Accelerometer-Based Upper Limb Score, Percentage Change from Baseline in Tremor Amplitude, Median: 9.78%
  Accelerometer-Based Upper Limb Score, Percentage Change from Randomization in Tremor Amplitude, Mean (SD): 2.97 (26.670) %
  Accelerometer-Based Upper Limb Score, Percentage Change from Randomization in Tremor Amplitude, Median: 12.37%
  Accelerometer-Based Upper Limb Score, Change from Randomization, LS Mean (SE) for Difference (Formula (I) - Placebo): −2.321 (1.8339)
  Accelerometer-Based Upper Limb Score, Change from Randomization, p-value for LS Mean Difference (Formula (I) - Placebo): 0.2614
  Accelerometer-Based Upper Limb Score, LS Mean Percentage Change Difference (Formula (I) - Placebo): −35.5%
Day 70
  Accelerometer-Based Upper Limb Score, Change from Baseline, Mean (SD): 2.02 (3.694)
  Accelerometer-Based Upper Limb Score, Change from Baseline, Median: 0.35
  Accelerometer-Based Upper Limb Score, Change from Randomization, LS Mean (SE): 3.223 (1.4066)
  Accelerometer-Based Upper Limb Score, Change from Randomization, Mean (SD): 3.02 (2.533)
  Accelerometer-Based Upper Limb Score, Change from Randomization, Median: 2.00
  Accelerometer-Based Upper Limb Score, LS Mean Percentage Change in Tremor Amplitude from Randomization: 46.1%
  Accelerometer-Based Upper Limb Score, Mean (SD): 13.17 (0.862)
  Accelerometer-Based Upper Limb Score, Median: 13.00
  Accelerometer-Based Upper Limb Score, Percentage Change from Baseline in Tremor Amplitude, Mean (SD): 22.11 (42.165) %
  Accelerometer-Based Upper Limb Score, Percentage Change from Baseline in Tremor Amplitude, Median: 6.50%
  Accelerometer-Based Upper Limb Score, Percentage Change from Randomization in Tremor Amplitude, Mean (SD): 39.81 (24.948) %
  Accelerometer-Based Upper Limb Score, Percentage Change from Randomization in Tremor Amplitude, Median: 31.87%
